Molecular target: T1, TRPV3 in KU-19-19 cells (Homo sapiens, UniProt Q8NET8)
T1 construct: host or cells: KU-19-19
T1 sequence (Q8NET8 1-790): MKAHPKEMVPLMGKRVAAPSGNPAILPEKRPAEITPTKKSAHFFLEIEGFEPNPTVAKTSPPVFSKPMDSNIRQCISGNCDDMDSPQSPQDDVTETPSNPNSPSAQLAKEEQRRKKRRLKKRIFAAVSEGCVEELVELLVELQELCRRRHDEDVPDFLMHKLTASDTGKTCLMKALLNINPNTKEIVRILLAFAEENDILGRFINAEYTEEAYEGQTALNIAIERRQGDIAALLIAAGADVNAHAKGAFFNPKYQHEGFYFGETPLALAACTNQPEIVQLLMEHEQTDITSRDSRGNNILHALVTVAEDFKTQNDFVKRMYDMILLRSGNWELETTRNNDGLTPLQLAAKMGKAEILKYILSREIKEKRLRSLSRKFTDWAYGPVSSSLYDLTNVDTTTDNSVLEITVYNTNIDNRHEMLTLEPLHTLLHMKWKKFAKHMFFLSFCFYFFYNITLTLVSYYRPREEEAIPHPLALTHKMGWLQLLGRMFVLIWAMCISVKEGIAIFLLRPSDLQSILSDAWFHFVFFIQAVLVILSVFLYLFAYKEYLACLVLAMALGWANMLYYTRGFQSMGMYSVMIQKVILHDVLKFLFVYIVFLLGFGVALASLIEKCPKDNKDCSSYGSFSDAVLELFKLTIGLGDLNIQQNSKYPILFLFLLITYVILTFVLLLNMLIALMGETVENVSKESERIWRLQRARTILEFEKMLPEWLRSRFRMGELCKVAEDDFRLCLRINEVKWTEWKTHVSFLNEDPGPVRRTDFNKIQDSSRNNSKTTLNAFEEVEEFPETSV
Assay: fura-2 Ca2+ assay in KU-19-19 bladder cancer cells
Format: cell-based
Settings: 50 μM AV3-1
Method: All fluorometric Ca^2+ assays were performed in HBS buffer at room temperature. The compounds of the Enamine Diversity Set were diluted in a buffer composed of 150 mM NaCl and 20 mM HEPES and added to the cells at a final concentration of 25 μM (0.5% DMSO). For the primary compound screening and the generation of concentration-response analyses, a robotic liquid handling station (Freedom Evo 150; Tecan) with a built-in custom-made fluorescence plate imager was used. HEKTRPV3 and bladder cancer cell lines were harvested and loaded with 4 μM fluo-4/AM (Invitrogen; Fisher Scientific) in cell culture medium for 30 minutes at 37 °C. […] Fluorescence was excited using a 470-nm light-emitting diode, and emitted light was imaged through a 515-nm–long pass filter with a cooled Zyla 5.5 camera (Andor). Fluorescence was recorded and processed under the control of the μ-Manager 2.0 gamma software (https://micro-manager.org.[28]). After recording baseline fluorescence, compounds were dispensed into the wells via the liquid handling device. […] For further analysis, fluorescence signals were calculated for each well, corrected for background intensities and normalized to the initial signals. […] Fluorescence signals were excited with a fiber-coupled monochromator device (Polychrome V; Till Photonics) at 340, 358, and 380 nm and calibrated as described before.[29] […]

[Ca2+]i response in KU-19-19 cells: robust increases in [Ca^2+]i
SMILES: COC(=O)C12CN(Cc3ccccc3)CC1(C(=O)OC)CN(Cc1ccccc1)C2 (stereo not shown) [AV3-1]

From publication PMC12881674, “Activation of TRPV3 channels in bladder cancer cells stimulates ATP release” (Molecular Pharmacology, 2025)
